Results: patent US7045532B2 (Millennium Pharmaceuticals, Inc., priority 1999, dated 2006)
Like-named read-outs stand apart in the source and are kept apart here.

Molecular target: T1, ACE-2 (Homo sapiens, UniProt Q9BYF1)
T1 construct: a stop codon inserted after the serine immediately preceding the transmembrane domain; made in house; host or cells: CHO K1 cells (transient transfection, purified from conditioned medium)
Assay: ACE-2 Competitive Substrate Assay (ACS Assay)
Assay type: biochemical

[1] = Ki class, compounds tested in 5% DMSO, 12 compound concentrations, Ki=Kiapp/(1+[S]/Km), read-out: Human ACE-2 Activity
[2] = Table 3, very good ACE-2 inhibiting compounds, species not given, read-out: ACE-2 Activity, Ki
[3] = Ki class per key, compounds tested in 5% DMSO, 12 compound concentrations, 25° C., Ki=Kiapp/(1+[S]/Km), read-out: Human ACE-2 Activity

T1 sequence (Q9BYF1 18-740 limits assumed): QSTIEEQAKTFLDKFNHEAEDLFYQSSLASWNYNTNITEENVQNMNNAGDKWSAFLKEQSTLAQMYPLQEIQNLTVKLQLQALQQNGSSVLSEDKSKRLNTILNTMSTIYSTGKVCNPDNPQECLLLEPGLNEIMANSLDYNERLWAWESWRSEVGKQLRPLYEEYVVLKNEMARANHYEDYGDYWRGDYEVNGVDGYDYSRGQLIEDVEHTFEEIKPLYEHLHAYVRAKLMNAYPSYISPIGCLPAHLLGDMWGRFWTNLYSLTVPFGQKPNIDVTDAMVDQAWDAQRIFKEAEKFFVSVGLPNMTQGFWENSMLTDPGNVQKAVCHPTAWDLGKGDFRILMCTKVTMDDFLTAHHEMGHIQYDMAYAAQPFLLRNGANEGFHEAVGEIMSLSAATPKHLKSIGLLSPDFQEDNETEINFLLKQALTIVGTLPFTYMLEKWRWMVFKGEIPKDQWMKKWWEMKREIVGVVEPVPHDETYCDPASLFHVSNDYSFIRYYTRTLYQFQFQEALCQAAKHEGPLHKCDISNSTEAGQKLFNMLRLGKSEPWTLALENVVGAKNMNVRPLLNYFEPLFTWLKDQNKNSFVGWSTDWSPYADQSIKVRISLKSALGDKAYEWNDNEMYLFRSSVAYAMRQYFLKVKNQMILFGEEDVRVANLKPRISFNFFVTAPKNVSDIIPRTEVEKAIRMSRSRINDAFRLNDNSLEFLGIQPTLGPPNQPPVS

SMILES | Ki [1] [µM] | Ki [2] [µM] | Ki [3] [µM]
CC(C)C[C@H](N[C@@H](CCC(=O)Nc1nc2ccc(F)cc2s1)C(=O)O)C(=O)O [OV, (S,S)-2-[1-Carboxy-3-(6-fluoro-benzothiazol-2-ylcarbamoyl)-propylamino]-4-methyl-pentanoic acid] | > 0.5 | – | –
CC(C)C[C@H](N[C@@H](Cn1ccn(Cc2cc(F)ccc2F)c1=O)C(=O)O)C(=O)O [OW, 2-[1-Carboxy-2-[3-(2,5-difluoro-benzyl)-2-oxo-2,3-dihydro-imidazol-1-yl]-ethylamino]-4-methyl-pentanoic acid] | < 0.1 | 0.05 to 0.1 | –
CC(C)C[C@H](N[C@@H](Cc1ccc(NC(=O)c2cc(F)cc(F)c2)cc1)C(=O)O)C(=O)O [OX, (S,S) 2-{1-Carboxy-2-[4-(3,5-difluoro-benzoylamino)-phenyl]-ethylamino}-4-methyl-pentanoic acid] | – | < 0.05 | < 0.1
CC(C)C[C@H](N[C@@H](Cc1ccc(-c2ccc(F)cc2)cc1)C(=O)O)C(=O)O [OY, (S,S)-[1-Carboxy-2-(4′-fluoro-biphenyl-4-yl)-ethylamino]-4-methyl-pentanoic acid] | – | < 0.05 | < 0.1
CC(C)C[C@H](N[C@@H](Cc1ccc(-c2ccc3c(c2)OCO3)cc1)C(=O)O)C(=O)O [OZ, 2-[2-(4-Benzo[1,3]dioxol-5-yl-phenyl)-1-carboxy-ethylamino]-4-methyl-pentanoic acid] | – | 0.05 to 0.1 | < 0.1
CC(C)C[C@H](N[C@@H](Cc1ccc(-c2csc3ccccc23)cc1)C(=O)O)C(=O)O [PA, 2-[2-(4-Benzo[b]thiophen-3-yl-phenyl)-1-carboxy-ethylamino]-4-methyl-pentanoic acid] | – | < 0.05 | < 0.1
CC(C)C[C@H](N[C@@H](Cc1cccc(Cc2ccccc2)c1)C(=O)O)C(=O)O [PB, (S,S)-2-[2-(3-Benzyl-phenyl)-1-carboxy-ethylamino]-4-methyl-pentanoic acid] | – | – | > 0.5
CC(C)C[C@H](N[C@@H](Cc1ccc(-c2ccc(C(F)(F)F)cc2)cc1)C(=O)O)C(=O)O [PC, (S,S)-2-[1-Carboxy-2-(4′-trifluoromethyl-biphenyl-4-yl)-ethylamino]-4-methyl-pentanoic acid] | – | 0.05 to 0.1 | < 0.1
CC(C)C[C@H](N[C@@H](Cc1ccc(NS(=O)(=O)c2ccccc2)cc1)C(=O)O)C(=O)O [PE, (S,S) 2-[2-(4-Benzenesulfonylamino-phenyl)-1-carboxy-ethylamino]-4-methyl-pentanoic acid] | – | – | > 0.5
CC(C)C[C@H](N[C@@H](Cc1cccc(Cc2cccc(Cl)c2)c1)C(=O)O)C(=O)O [PF, 2-[1-Carboxy-2-[3-(3-chloro-benzyl)-phenyl]-ethylamino]-4-methyl-pentanoic acid] | – | – | 0.1 to 0.5
CC(C)C[C@H](N[C@@H](Cc1cccc(Cc2cc(Cl)cc(Cl)c2)c1)C(=O)O)C(=O)O [PG, (S,S)-2-{1-Carboxy-2-[3-(3,5-dichloro-benzyl)-phenyl]-ethylamino}-4-methyl-pentanoic acid] | – | – | 0.1 to 0.5
CC(C)C[C@H](N[C@@H](Cc1cccc(OCc2csc3ccc(Cl)cc23)c1)C(=O)O)C(=O)O [PH, S,S-2-{1-Carboxy-2-[3-(5-chloro-benzo[b]thiophen-3-ylmethoxy)-phenyl]-ethylamino}-4-methyl-pentanoic acid] | – | < 0.05 | < 0.1
CC(C)C[C@H](N[C@@H](Cc1ccc(-c2ccccn2)cc1)C(=O)O)C(=O)O [PI, (S,S)-2-[1-Carboxy-2-(4-pyridin-2-yl-phenyl)-ethylamino]-4-methyl-pentanoic acid] | – | 0.05 to 0.1 | < 0.1
CC(C)C[C@H](N[C@@H](Cc1ccc(-c2cccnc2)cc1)C(=O)O)C(=O)O [PJ, (S,S)-2-[1-Carboxy-2-(4-pyridin-3-yl-phenyl)-ethylamino]-4-methyl-pentanoic acid] | – | 0.05 to 0.1 | < 0.1
CC(C)C[C@H](N[C@@H](Cc1ccc(-c2ccncc2)cc1)C(=O)O)C(=O)O [PK, (S,S)-2-[1-Carboxy-2-(4-pyridin-4-yl-phenyl)-ethylamino]-4-methyl-pentanoic acid] | – | – | 0.1 to 0.5
C[C@H](N[C@@H](Cc1cncn1Cc1cc(Cl)cc(Cl)c1)C(=O)O)C(=O)O [PL, (S,S) 2-(1-Carboxy-ethylamino)-3-[3-(3,5-dichloro-benzyl)-3H-imidazol-4-yl]-propionic acid] | – | < 0.05 | < 0.1
C[C@@H](N[C@@H](Cc1cncn1Cc1cc(Cl)cc(Cl)c1)C(=O)O)C(=O)O [PM, 2-(1-Carboxy-ethylamino)-3-[3-(3,5-dichloro-benzyl)-3H-imidazol-4-yl]-propionic acid] | – | – | > 0.5
O=C(O)[C@H](CCc1ccccc1)N[C@@H](Cc1cncn1Cc1cc(Cl)cc(Cl)c1)C(=O)O [PN, (S,S) 2-{1-Carboxy-2-[3-(3,5-dichloro-benzyl)-3H-imidazol-4-yl]-ethylamino}-4-phenyl-butyric acid] | – | < 0.05 | < 0.1
CC(C)C[C@H](N[C@@H](Cc1ccc(-n2cccc2)cc1)C(=O)O)C(=O)O [PO, 2-[1-Carboxy-2-(4-pyrrol-1-yl-phenyl)-ethylamino]-4-methyl-pentanoic acid] | – | < 0.05 | > 0.5
CC(C)C[C@H](N[C@@H](Cn1ccn(CCc2ccccc2F)c1=O)C(=O)O)C(=O)O [PP, 2-(1-Carboxy-2-{3-[2-(2-fluoro-phenyl)-ethyl]-2-oxo2,3-dihydro-imidazol-1-yl}-ethylamino)-4-methyl-pentanoic acid] | – | – | > 0.5
CC(C)C[C@H](N[C@@H](CC#Cc1cc(Cl)cc(Cl)c1)C(=O)O)C(=O)O [PR, 2-(1-Carboxy-3-methyl-butylamino)-5-(3,5-dichloro-phenyl)-pent-4-ynoic acid] | – | – | > 0.5
CC(C)C[C@H](N[C@@H](Cc1ccc(Oc2cc(F)cc(F)c2)cc1)C(=O)O)C(=O)O [PS, 2-[1-Carboxy-2-[4-(3,5-difluoro-phenoxy)-phenyl]-ethylamino]-4-methyl-pentanoic acid] | – | – | > 0.5
CC(C)C[C@H](N[C@@H](Cc1ccccc1-c1cc(Cl)cc(Cl)c1)C(=O)O)C(=O)O [PT, S,S-2-[1-Carboxy-2-(3′,5′dichloro-biphenyl-2-yl)-ethylamino]-4-methyl-pentanoic acid] | – | – | 0.1 to 0.5
CC(C)C[C@H](N[C@@H](Cc1ccc(C(=O)OC(C)(C)C)cc1)C(=O)O)C(=O)O [PU, (S,S) 4-[2-Carboxy-2-(1-carboxy-3-methyl-butylamino)-ethyl]-benzoic acid tert-butyl ester] | – | – | < 0.1
CC(C)C[C@H](N[C@@H](CN1C(=O)CN(Cc2cc(F)cc(F)c2)C1=O)C(=O)O)C(=O)O [PW, 2-[1-Carboxy-2-[3-(3,5-difluoro-benzyl)-2,5-dioxo-imidazolidin-1-yl]-ethylamino]-4-methyl-pentanoic acid] | – | – | < 0.1
CC(C)C[C@H](N[C@@H](CN1C(=O)CN(Cc2cc(Cl)cc(Cl)c2)C1=O)C(=O)O)C(=O)O [PX, 2-[1-Carboxy-2-[3-(3,5-dichloro-benzyl)-2,5-dioxo-imidazolidin-1-yl]-ethylamino]-4-methyl-pentanoic acid] | – | – | < 0.1
CC(C)C[C@H](N[C@@H](CN1C(=O)CN(Cc2ccc(C(F)(F)F)cc2C(F)(F)F)C1=O)C(=O)O)C(=O)O [PY, 2-[2-[3-(2,4-Bis-trifluoromethyl-benzyl)-2,5-dioxo-imidazolidin-1-yl]-1-carboxy-ethylamino]-4-methyl-pentanoic acid] | – | – | > 0.5
